# Laboratory results published in US12473298B2, “Amide compounds, preparation method therefor, and use thereof in the medical field” (Shanghai Synergy Pharmaceutical Sciences Co., Ltd., priority 2019, dated 2025).
# Where a name gives a salt, the structure may show the parent alone. Read-outs that look alike come from different tables or passages of the source.
# Assays:
# [1] = Pharmacokinetic experiment in rats; format: in vivo, SD rats; settings: for AUC / Cmax / bioavailability: male, SD, rat; for AUC: read-out: Area Curve (AUC, ng/mL · h); for half-life: male, SD, rat, plasma; rats, Intravenous-Dose 4 mg/kg; read-out: Half life T1/2, h) (converted); for Cmax: read-out: Blood Drug level (Cmax, ng/mL)
# Method: A certain amount of compound was weighted and dissolved in 0.1% Tween under vortex and ultrasound, and 0.5% carboxymethyl cellulose sodium (CMC-NA) solution was added to form a uniform solution.
# [2] = test system: human diffuse large B-cell lymphoma cells (Karpas 422 cell); assay: Karpas 422 cell proliferation, Calcein AM staining; format: cell-based
# [3] = test system: human diffuse large cell lymphoma B lymphocytes (Pfeiffer cell); assay: Pfeiffer cell proliferation, Calcein AM staining; format: cell-based
# Source text: The diffuse large cell lymphoma B lymphocytes (Pfeiffer cells) were collected and counted when growing well.
# [4] = plasma, rats, Intravenous-Dose 4 mg/kg
# [5] = plasma, rats, Oral-Dose 20 mg/kg
# [6] = plasma, rats, oral 20 mg/kg vs intravenous 4 mg/kg, read-out: Bioavailability (P %)
# [7] = Homo sapiens, KARPAS-422, data of 14th day, read-out: Karpas422 Proliferation IC50 Nanomoles per Liter
# [8] = Homo sapiens, Pfeiffer, data of 14th day, read-out: Pfeiffer Proliferation IC50 Nanomoles per Liter
# [9] = Homo sapiens, KARPAS-422, read-out: Karpas422 Proliferation IC50 Nanomoles per Liter (nM)
compound,measurement,setting,value
"CCN(c1cc(-c2ccc3c(c2)N(C)C(=O)C32CCN(C(C)C)CC2)c(F)c(C(=O)NCc2c(C)cc(C)[nH]c2=O)c1C)C1CCOCC1 [Example 61, N-((4,6-dimethyl-2-oxo-1,2-dihydropyridin-3-yl)methyl)-3-(ethyl(tetrahydro-2H-pyran-4-yl)amino)-6-fluoro-5-(1′-isopropyl-1-methyl-2-oxospiro[dihydroindole-3,4′-piperidine]-6-yl)-2-methylbenzamide]",AUC,[1]; [4],932 ng·h/mL
same,half-life,[1],1.72 h
same,AUC,[1]; [5],1250 ng·h/mL
same,Cmax,[1]; [5],426 ng/mL
same,bioavailability,[1]; [6],26.8%
"CCN1C(=O)C2(CCOCC2)c2ccc(-c3cc(C(=O)NCc4c(C)cc(C)[nH]c4=O)c(C)c(N(CC)C4CCOCC4)c3)cc21 [Example 18, N-((4,6-dimethyl-2-carbonyl-1,2-dihydropyridin-3-yl)methyl)-3-(ethyl(tetrahydro-2H-pyran-4-yl)amino)-5-(1-ethyl-2-carbonyl-2′,3′,5′,6′-tetrahydrospiro[dihydroindole-3,4′-pyran]-6-yl)-2-methylbenzamide]",AUC,[1]; [4],932 ng·h/mL
same,half-life,[1],1.35 h
same,AUC,[1]; [5],1190 ng·h/mL
same,Cmax,[1]; [5],472 ng/mL
same,bioavailability,[1]; [6],25.5%
"CCCN1CC2(CCOCC2)c2ccc(-c3cc(N(CC)C4CCOCC4)c(C)c(C(=O)NCc4c(C)cc(C)[nH]c4=O)c3F)cc21 [Example 59, N-((4,6-dimethyl-2-carbonyl-1,2-dihydropyridin-3-yl)methyl)-3-(ethyl(tetrahydro-2H-pyran-4-yl)amino)-6-fluoro-2-methyl-5-(1-propyl-2′,3′,5′,6′-tetrahydrospiro[dihydroindole-3,4′-pyran]-6-yl)benzamide]",IC50,[2]; [7],3.35 nM
same,IC50,[3]; [8],1.97 nM
"CCN(c1cc(-c2ccc3c(c2)N(C(=O)C(F)(F)F)CC32CCOCC2)cc(C(=O)NCc2c(C)cc(C)[nH]c2=O)c1C)C1CCOCC1 [Example 75, 5-(1-trifluoroacetyl-2′,3′,5′,6′-tetrahydrospiro[dihydroindole-3,4′-pyran]-6-yl)-N-((4,6-dimethyl-2-carbonyl-1,2-dihydropyridin-3-yl)methyl)-3-(ethyl(tetrahydro-2H-pyran-4-yl)amino)-2-methylbenzamide]",IC50,[3]; [8],0.87 nM
"CCN1C(=O)C2(CCOCC2)c2ccc(-c3cc(N(CC)C4CCOCC4)c(C)c(C(=O)NCc4c(C)cc(C)[nH]c4=O)c3Cl)cc21 [Example 48, 2-chloro-N-((4,6-dimethyl-2-oxo-1,2-dihydropyridin-3-yl)methyl)-5-(ethyl(tetrahydro-2H-pyran-4-yl)amino)-3-(1-ethyl-2-oxo-2′,3′,5′,6′-tetrahydrospiro[dihydroindole-3,4′-pyran]-6-yl)-6-methylbenzamide]",IC50,[2]; [9],1.99 nM
same,IC50,"[3]; Homo sapiens, Pfeiffer, read-out: Pfeiffer Proliferation IC50 Nanomoles per Liter (nM)",1.42 nM
"CCN(c1cc(-c2ccc3c(c2)N(C)CC32CCOCC2)cc(C(=O)NCc2c(OC)cc(C)[nH]c2=O)c1C)C1CCN(CC(F)(F)F)CC1 [Example 40, 3-(ethyl(1-(2,2,2-trifluoroethyl)piperidin-4-yl)amino)-N-((4-methoxy-6-methyl-2-carbonyl-1,2-dihydropyridin-3-yl)methyl)-2-methyl-5-(1-methyl-2′,3′,5′,6′-tetrahydrospiro[dihydroindole-3,4′-pyran]-6-yl)benzamide]",IC50,[2]; [7],3.09 nM
same,IC50,[3]; [8],2.49 nM
"CCN(c1cc(-c2cc3c(cc2F)CCC32CCOCC2)cc(C(=O)NCc2c(OC)cc(C)[nH]c2=O)c1C)C1CCOCC1 [Example 16, 3-(ethyl(tetrahydro-2H-pyran-4-yl)amino)-5-(5-fluoro-2,2′,3,3′,5′,6′-hexahydrospiro[indene-1,4′-pyran]-6-yl)-N-((4-methoxy-6-methyl-2-carbonyl-1,2-dihydropyridin-3-yl)methyl)-2-methylbenzamide]",AUC,[1]; [4],956 ng·h/mL
same,half-life,[1],1.42 h
same,AUC,[1]; [5],1310 ng·h/mL
same,Cmax,[1]; [5],480 ng/mL
same,bioavailability,[1]; [6],27.4%
"CCN(c1cc(-c2ccc3c(c2)C2(CC3)CC(C)N(CC)C(C)C2)cc(C(=O)NCc2c(OC)cc(C)[nH]c2=O)c1C)C1CCOCC1 (stereo not drawn) [Example 50, 3-(ethyl(tetrahydro-2H-pyran-4-yl)amino)-5-(1′-ethyl-2′,6′-dimethyl-2,3-dihydrospiro[indene-1,4′-piperidine]-6-yl)-N-((4-methoxy-6-methyl-2-oxo-1,2-dihydropyridin-3-yl)methyl)-2-methylbenzamide formate]",IC50,[2]; [9],1.08 nM
same,AUC,[1]; [4],954 ng·h/mL
same,half-life,[1],1.34 h
same,AUC,[1]; [5],1350 ng·h/mL
same,Cmax,[1]; [5],448 ng/mL
same,bioavailability,[1]; [6],28.2%
"CCN(c1cc(-c2ccc3c(c2)NC(=O)C32CCOCC2)cc(C(=O)NCc2c(OC)cc(C)[nH]c2=O)c1C)C1CCOCC1 [Example 115, 3-(Ethyl(tetrahydro-2H-pyran-4-yl)amino)-N-((4-methoxy-6-methyl-2-oxo-1,2-dihydropyridin-3-yl)methyl)-2-methyl-5-(2-oxo-2′,3′,5′,6′-tetrahydrospiro[dihydroindole-3,4′-pyran]-6-yl)benzamide]",AUC,[1]; [4],948 ng·h/mL
same,half-life,[1],1.15 h
same,AUC,[1]; [5],1570 ng·h/mL
same,Cmax,[1]; [5],415 ng/mL
same,bioavailability,[1]; [6],33.1%
"CCN(c1cc(-c2ccc3c(c2)N(C)CC32CCN(C(=O)OC)CC2)cc(C(=O)NCc2c(C)cc(C)[nH]c2=O)c1C)C1CCOCC1 [Example 33, Methyl 6-(3-(((4,6-dimethyl-2-carbonyl-1,2-dihydropyridin-3-yl)methyl)carbamoyl)-5-(ethyl(tetrahydro-2H-pyran-4-yl)amino)-4-methylphenyl)-1-methylspiro[dihydroindole-3,4′-piperidine]-1′-carboxylate]",IC50,[2]; [7],4.92 nM
same,IC50,[3]; [8],3.1 nM
"CCN(c1cc(-c2ccc3c(c2)NC(=O)C32CCOCC2)cc(C(=O)NCc2c(OC)cc(C)[nH]c2=O)c1C)C1CCNCC1 [Example 3, 3-(ethyl(piperidin-4-yl)amino)-N-((4-methoxy-6-methyl-2-oxo-1,2-dihydropyridin-3-yl)methyl)-2-methyl-5-(2-oxo-2′,3′,5′,6′-tetrahydrospiro[dihydroindole-3,4′-pyran]-6-yl)benzamide]",AUC,[1]; [4],948 ng·h/mL
same,half-life,[1],1.15 h
same,AUC,[1]; [5],1570 ng·h/mL
same,Cmax,[1]; [5],415 ng/mL
same,bioavailability,[1]; [6],33.1%
"CCN(c1cc(-c2ccc3c(c2)N(CC(F)(F)F)CC32CCOCC2)cc(C(=O)NCc2c(C)cc(C)[nH]c2=O)c1C)C1CCOCC1 [Example 20, N-((4,6-dimethyl-2-carbonyl-1,2-dihydropyridin-3-yl)methyl)-3-(ethyl(tetrahydro-2H-pyran-4-yl)amino)-2-methyl-5-(1-(2,2,2-trifluoroethyl)-2′,3′,5′,6′-tetrahydrospiro[dihydroindole-3,4′-pyran]-6-yl)benzamide]",IC50,[2]; [7],3.03 nM
same,IC50,[3]; [8],2.32 nM
"CCN(c1cc(-c2ccc3c(c2)NC(=O)C32CCNCC2)cc(C(=O)NCc2c(OC)cc(C)[nH]c2=O)c1C)C1CCNCC1 [Example 116, 3-(Ethyl(piperidin-4-yl)amino)-N-((4-methoxy-6-methyl-2-oxo-1,2-dihydropyridin-3-yl)methyl)-2-methyl-5-(2-oxospiro[indole-3,4′-piperidine]-6-yl)benzamide]",bioavailability,"[1]; in vivo, po, 20 mg/kg",34.3%
same,AUC,[1]; [4],912 ng·h/mL
same,half-life,[1],1.05 h
same,AUC,[1]; [5],1570 ng·h/mL
same,Cmax,[1]; [5],453 ng/mL
"N-((4,6-dimethyl-2-carbonyl-1,2-dihydropyridin-3-yl)methyl)-3-(ethyl(tetrahydro-2H-pyran-4-yl)amino)-2-methyl-5-(1-neopentyl-2′,3′,5′,6′-tetrahydrospiro[dihydroindole-3,4′-pyran]-6-yl)benzamide [Example 29]",IC50,[2]; read-out: Karpas422 Proliferation IC50 Nanomoles per Liter,3.01 nM
same,IC50,[3]; read-out: Pfeiffer Proliferation IC50 Nanomoles per Liter,2.13 nM
"CCN(c1cc(-c2ccc3c(c2)N(CCC(F)(F)F)CC32CCOCC2)cc(C(=O)NCc2c(C)cc(C)[nH]c2=O)c1C)C1CCOCC1 [Example 26, N-((4,6-dimethyl-2-oxo-1,2-dihydropyridin-3-yl)methyl)-3-(ethyl(tetrahydro-2H-pyran-4-yl)amino)-2-methyl-5-(1-(3,3,3-trifluoropropyl)-2′,3′,5′,6′-tetrahydrospiro[indoline-3,4′-pyran]-6-yl)benzamide]",IC50,[2]; [7],2.53 nM
same,IC50,[3]; [8],1.85 nM
"CCN(c1cc(-c2ccc3c(c2)N(C(C)C)CC32CCOCC2)c(Cl)c(C(=O)NCc2c(OC)cc(C)[nH]c2=O)c1C)C1CCOCC1 [Example 49, 2-chloro-5-(ethyl(tetrahydro-2H-pyran-4-yl)amino)-3-(1-isopropyl-2,3,5,6-tetrahydrospiro[dihydroindole-3,4-pyran]-6-yl)-N-((4-methoxy-6-methyl-2-oxo-1,2-dihydropyridin-3-yl)methyl)-6-methylbenzamide]",AUC,[1]; [4],997 ng·h/mL
same,half-life,[1],1.31 h
same,AUC,[1]; [5],1300 ng·h/mL
same,Cmax,[1]; [5],598 ng/mL
same,bioavailability,[1]; [6],26.2%
"CCN(c1cc(-c2ccc3c(c2)N(C(C)C)C(=O)C32CCOCC2)cc(C(=O)NCc2c(OC)cc(C)[nH]c2=O)c1C)C1CCOC(C)(C)C1 (stereo not drawn) [Example 64, 3-((2,2-dimethyltetrahydro-2H-pyran-4-yl)(ethyl)amino)-5-(1-isopropyl-2-carbonyl-2′,3′,5′,6′-tetrahydrospiro[dihydroindole-3,4′-pyran]-6-yl)-N-((4-methoxy-6-methyl-2-carbonyl-1,2-dihydropyridin-3-yl)methyl)-2-methylbenzamide]",IC50,[2]; [9],0.81 nM
